Results taken from US6335339B1, “Triazine antiviral compounds” (Scriptgen Pharmaceuticals, Inc., priority 1998, dated 2002).
pIC50: −log10 of the molar value.

What was measured:
[1] = test system: 2.2.15 cells; experiment: neutral red dye uptake cytotoxicity; type: cell-based; settings: 9 days treatment, read-out: 50% Cell Death CC50
Procedure: Further, the antiviral effect of any compound must be measured against its toxicity. Cytotoxicity is measured by the neutral red uptake method using the same cells used for antiviral activity.
2b. Compounds were prepared for toxicity treatment as follows: For each compound, a total of 4 concentrations were examined. This required 9 sets of 4 sterile, 1.1 ml minitubes (36 tubes per compound). Into the first tube of each set, sufficient compound was aliquoted to make up 465 μl of the highest test concentration. The other tubes were left empty. The tubes were covered with the rack lids, and stored at −20° C. or at an appropriate temperature. Tubes for the last day of treatment for toxicity testing contain the same amount of compound as used the previous days (not 3xas for the antiviral assays).
3b. The cytotoxicity of test compounds was analyzed in a 3.3-fold dilution series as follows. […] (155 μl×3) of RP2 were added to the first tube (containing the aliquot of compound) and 310 μL (155 μl×2) RP2 to each of the 3 remaining tubes. 150 μl of test compound-containing medium were serially transferred from the first tube to the other 3 tubes.
5. A single plate was used for the toxicity treatments for each test compound (up to 7 compounds per plates since the top row were reserved for untreated cells on every toxicity plate). To initiate the treatments, the culture medium was removed, and 100 μl of each dilution of every compound were added to each of 3 wells using a configuration similar to that shown above for the antiviral treatments. The untreated cells received 100 μl RP2 per well. Treatment was repeated daily for 9 days.
The antiviral effect of any compound was evaluated relative to its toxicity. Cells were seeded and treated following the guidelines above, after which a neutral red dye uptake assay was performed to assess toxicity as described below. Other assays of cytotoxicity (e.g., MTT) can be substituted for the procedure described below. Note that this procedure assesses toxicity under culture and treatment conditions which are identical to those used for the antiviral analyses, thereby permitting a determination as to whether the reduction in virus production due to a specific antiviral effect or due to a cytotoxic effect on the host cell. Since the cultures, by necessity, are at confluence, the cytotoxic effects of the test compounds will probably be reduced relative to the cytotoxic effects that would be expected for actively dividing cells.
1. Cultures were treated with test compounds on the designated toxicity plates as described above.
2. The culture medium was carefully removed 24 hours following the 9th day of treatment. The monolayer was fully removed in the top left three wells (row A, col. 1-3). These wells were used as “blanks” for the plate reader.
3. 100 μl DPBS (containing 0.01% neutral red dye) were added to each well, including the empty wells, and Incubated in the tissue culture incubator for 30 minutes.
4. The dye was removed carefully and gently, using a multichannel pipetman since the monolayers can become fragile after incubation with neutral red dye. 200 μl DPBS were added to all the wells taking care not to displace the monolayers. The DPBS was removed and 100 μl 50% EtOH/1% glacial acetic acid (in H2O) were added to each well. The plates were mixed for 15 minutes on an orbital platform shaker (120-150 RPM) to allow for full extraction of the dye from the cells.
5. Optical absorbance at 510 nm was read in an ELISA type plate reader, using the 3 empty wells to set the background. An average absorbance value was calculated for the 9 untreated cultures on a plate, and the absorbance of dye for the treated cultures on the same plate was expressed as a percentage of that value. This procedure was repeated for each individual plate. […]

[2] = test system: HIV derived RRE RNA; experiment: heterologous hybridization inhibition assay with RRE RNA; type: binding; settings: radiolabeled RRE RNA, rRNA competitor

Row | Compound | CC50 [1] | RRE + rRNA IC50 (μM) [2] | pIC50 [2]
1 | Oc1ccccc1C=NNc1nc(Nc2ccccc2)nc(N2CCCCC2)n1 [Compound 169] | > 300 µM | inactive | –
2 | COc1cccc(C=NNc2nc(Nc3ccccc3)nc(N3CCCC3)n2)c1O [Compound 170] | 499 µM | – | 3.13
3 | CCN(CC)c1nc(NN=Cc2c(O)ccc3ccccc23)nc(Nc2ccccc2)n1 [Compound 171] | 174 µM | inactive | –
4 | Cc1cccc(C(=O)Oc2ccc(C=NNc3nc(N4CCCCC4)nc(N4CCCCC4)n3)cc2)c1 [Compound 181] | > 300 µM | inactive | –
5 | CC(=NNc1nc(NCc2ccccc2)nc(Nc2ccccc2)n1)c1ccc([N+](=O)[O-])cc1 [Compound 182] | > 300 µM | inactive | –
6 | CC(=NNc1nc(Nc2ccccc2)nc(N2CCCC2)n1)c1ccc([N+](=O)[O-])cc1 [Compound 183] | > 300 µM | inactive | –
7 | Cc1ccc(Nc2nc(NCc3ccccc3)nc(NN=Cc3ccc(F)cc3F)n2)cc1C [Compound 191] | 836 µM | inactive | –
8 | CN(C)c1nc(NCc2ccccc2)nc(NCc2cccs2)n1 [Compound 192] | 739 µM | inactive | –
9 | COc1c(C=NNc2nc(N3CCCC3)nc(N3CCOCC3)n2)cccc1[N+](=O)[O-] [Compound 193] | 666 µM | inactive | –
10 | Cc1ccc(Nc2nc(NCc3ccccc3)nc(Nc3ccc([N+](=O)[O-])cc3)n2)cc1C [Compound 194] | 626 µM | inactive | –
11 | COc1ccccc1C=NNc1nc(NCc2ccccc2)nc(Nc2ccccc2)n1 [Compound 195] | 400 µM | inactive | –
12 | Cc1ccc(Nc2nc(NN=Cc3ccc(Cl)cc3)nc(N3CCOCC3)n2)cc1Cl [Compound 196] | 381 µM | inactive | –
13 | COc1ccc(Nc2nc(NN=Cc3cc(Br)cc(Br)c3O)nc(N3CCOCC3)n2)cc1 [Compound 200] | 309 µM | inactive | –
14 | Fc1cccc(C=NNc2nc(Nc3ccccc3)nc(N3CCCC3)n2)c1 [Compound 201] | > 300 µM | inactive | –
15 | CCN(CC)c1nc(Nc2cccc(Br)c2)nc(Nc2cc(C)ccc2C)n1 [Compound 202] | > 300 µM | inactive | –
16 | O=C(CSc1nc(SCC(=O)Nc2ccccc2C(F)(F)F)nc(SCC(=O)Nc2ccccc2C(F)(F)F)n1)Nc1ccccc1C(F)(F)F [Compound 212] | > 300 µM | inactive | –
17 | C(=Cc1ccccc1)C=NNc1nc(Nc2ccccc2)nc(N2CCCC2)n1 [Compound 213] | > 300 µM | – | 3.29
18 | CCN(CC)c1nc(NN=Cc2ccc(Cl)c([N+](=O)[O-])c2)nc(Nc2cc(C)ccc2C)n1 [Compound 214] | > 300 µM | inactive | –
19 | Clc1ccc(C=NNc2nc(Nc3ccccc3)nc(N3CCCC3)n2)cc1 [Compound 218] | > 300 µM | – | 4.24
20 | Cc1ccc(Nc2nc(NCc3ccccc3)nc(NN=Cc3cc(Br)cc(Br)c3O)n2)cc1C [Compound 219] | > 300 µM | inactive | –

Row | Compound | CC50 [1] | RRE + rRNA IC50 (μM) [2] | pIC50 [2]
21 | O=C(NNc1nc(Nc2ccccc2)nc(Nc2cccc(C(F)(F)F)c2)n1)c1cccc(Br)c1 [Compound 220] | > 300 µM | – | 3.04
22 | CN(C)c1nc(NCc2ccccc2)nc(NN=Cc2ccc(Cl)cc2Cl)n1 [Compound 224] | > 300 µM | inactive | –
23 | COc1ccc(Nc2nc(NCc3cccc([N+](=O)[O-])c3)nc(NCc3cc(F)ccc3F)n2)cc1OC [Compound 225] | 281 µM | inactive | –
24 | Cc1ccc(Nc2nc(NCc3ccccc3)nc(NN=Cc3cc(Cl)ccc3O)n2)cc1C [Compound 226] | 280 µM | – | 3.37
25 | CC(=NNc1nc(Nc2ccccc2)nc(N2CCCC2)n1)c1ccc(F)cc1 [Compound 227] | 247 µM | inactive | –
26 | Cc1ccc(Nc2nc(NCc3ccccc3)nc(NN=Cc3ccccc3F)n2)cc1C [Compound 228] | 243 µM | inactive | –
27 | Cc1ccc(Nc2nc(NN=Cc3cccc([N+](=O)[O-])c3)nc(Nc3ccccc3)n2)c(C)c1 [Compound 229] | 237 µM | inactive | –
28 | Brc1ccc(Nc2nc(NCc3ccccc3)nc(Nc3ccc(Br)cc3)n2)cc1 [Compound 230] | 231 µM | inactive | –
29 | O=[N+]([O-])c1ccc(Nc2nc(NCc3ccccc3)nc(N3CCOCC3)n2)cc1 [Compound 231] | 218 µM | inactive | –
30 | Oc1ccc(Br)cc1C=NNc1nc(Nc2cccc(Br)c2)nc(N2CCOCC2)n1 [Compound 232] | 190 µM | inactive | –
31 | CNc1nc(NN=Cc2cc(Cl)ccc2O)nc(Nc2ccccc2)n1 [Compound 245] | 137 µM | inactive | –
32 | Oc1ccc(Br)cc1C=NNc1nc(Nc2cccc(C(F)(F)F)c2)nc(N2CCOCC2)n1 [Compound 246] | 141 µM | inactive | –
33 | FC(F)(F)c1cccc(Nc2nc(Nc3cccc(Cl)c3)nc(N3CCOCC3)n2)c1 [Compound 247] | 136 µM | inactive | –
34 | Cc1ccc(Nc2nc(NCc3cc(F)ccc3F)nc(Nc3ccc([N+](=O)[O-])cc3)n2)cc1C [Compound 248] | 135 µM | inactive | –
35 | Cc1ccc(Nc2nc(NN=Cc3ccc(Cl)cc3)nc(N3CCOCC3)n2)cc1 [Compound 249] | 134 µM | inactive | –
36 | Cc1ccc(Nc2nc(NNC(=O)c3ccccc3O)nc(Oc3ccc([N+](=O)[O-])cc3)n2)cc1C [Compound 250] | 123 µM | inactive | –
37 | Cc1ccc(Nc2nc(Nc3cccc(C(F)(F)F)c3)nc(N3CCOCC3)n2)cc1C [Compound 251] | 96 µM | inactive | –
38 | COc1ccc(Nc2nc(NCCc3ccccc3)nc(N(C)C)n2)cc1OC [Compound 252] | 61 µM | inactive | –
39 | CNc1nc(NN=Cc2ccccc2C(F)(F)F)nc(Nc2cccc(C(F)(F)F)c2)n1 [Compound 253] | 193 µM | – | 3.18
